# Patent US20160368879A1, “PHOTOACID GENERATOR, AND RESIN COMPOSITION FOR PHOTOLITHOGRAPHY” (SAN-APRO LTD., priority 2013, published 2016)
# How the values were obtained:
# Type in all cases: physicochemical
# [1] = Thermal decomposition temperature (TG/DTA, 2% weight reduction); conditions: point of 2% weight reduction; 10° C./minute from 30° C. to 500° C.; nitrogen atmosphere
# Description: The synthesized photoacid generator was measured for the change in weight under a temperature increasing condition of 10° C./minute from 30° C. to 500° C. under a nitrogen atmosphere using a thermal gravimetric/differential thermal analyzer (TG/DTA 6200, available from Seiko Instruments Inc.), and a point where the weight was reduced by 2% was defined as the thermal decomposition temperature.
# [2] = Molar extinction coefficient of i-line (365 nm), UV-visible absorbance in acetonitrile; conditions: 0.25 mmol/L in acetonitrile, cell length 1 cm
# Description: The synthesized photoacid generator was diluted to 0.25 mmol/L with acetonitrile, and using an ultraviolet-visible spectrophotometer (UV-2550 available from SHIMADZU CORPORATION), the absorbance in a range of 200 nm to 500 nm was measured with a cell having an optical path length (a cell length) of 1 cm. The molar extinction coefficient of i-line (365 nm) (ε365) was calculated from the following equation.
# [In the equation, […] represents the absorbance at 365 nm.]
# [3] = Solvent solubility (butyl acetate, toluene or PGMEA); conditions: 25° C.
# Description: In a test tube, 0.1 g of the synthesized photoacid generator was placed, and an organic solvent (butyl acetate, toluene or PGMEA) was added thereto in 0.2 g portions under a condition where the temperature was adjusted to 25° C. until the photoacid generator was completely dissolved. In this connection, in the case where the photoacid generator was not completely dissolved even when 20 g of the solvent was added, the photoacid generator was evaluated as one that was not dissolved.
Compound,Thermal decomposition temperature [1] [°C],Molar extinction coefficient [2] [L/mol/cm],Solvent solubility PGMEA [3] [wt %],Solvent solubility Butyl acetate [3] [wt %],Solvent solubility Toluene [3] [wt %]
"O=C1c2cc(C34CC5CC(CC(C5)C3)C4)cc3cc(C45CC6CC(CC(C6)C4)C5)cc(c23)C(=O)N1OS(=O)(=O)C(F)(F)F [Example A-15, 3,6-diadamantyl-1,8-naphthalimide trifluoromethanesulfonate]",250,6000,7,7.5,8.5
"O=C1c2cccc3c(C(F)(F)C(F)(F)C(F)(F)C(F)(F)F)ccc(c23)C(=O)N1OS(=O)(=O)C(F)(F)F [Example A-16, 4-(nonafluorobutyl)-1,8-naphthalimide trifluoromethanesulfonate]",239,40,22,25,28
"O=C1c2cccc3c(C(F)(F)C(F)(F)C(F)(F)C(F)(F)C(F)(F)C(F)(F)C(F)(F)C(F)(F)F)ccc(c23)C(=O)N1OS(=O)(=O)C(F)(F)F [Example A-17, 4-(heptadecafluoro-n-octyl)-1,8-naphthalimide trifluoromethanesulfonate]",242,80,>30,>30,>30
"C[Si](C)(C)c1ccc2c3c(cccc13)C(=O)N(OS(=O)(=O)C(F)(F)F)C2=O [Example A-18, 4-trimethylsilyl-1,8-naphthalimide trifluoromethanesulfonate]",240,5500,8,7.5,9
"O=C1c2cccc3c(Cl)ccc(c23)C(=O)N1OS(=O)(=O)C(F)(F)F [Example A-19, 4-chloro-1,8-naphthalimide trifluoromethanesulfonate]",220,6000,6,5,10
"O=C1c2cccc3c(Br)ccc(c23)C(=O)N1OS(=O)(=O)C(F)(F)F [Example A-20, 4-bromo-1,8-naphthalimide trifluoromethanesulfonate]",230,8500,4,4.5,8
"CC(C)Oc1ccc2c3c(cccc13)C(=O)N(OS(=O)(=O)c1c(F)c(F)c(F)c(F)c1F)C2=O [Example A-21, 4-isopropoxy-1,8-naphthalimide pentafluorobenzenesulfonate]",236,16300,4.5,4,3.5
"CCCOc1ccc2c3c(cccc13)C(=O)N(OS(=O)(=O)c1c(F)c(F)c(F)c(F)c1F)C2=O [Example A-22, 4-n-propoxy-1,8-naphthalimide pentafluorobenzenesulfonate]",240,14000,3,3.5,6
"O=C1c2cccc3c(OCC(F)(F)C(F)F)ccc(c23)C(=O)N1OS(=O)(=O)c1c(F)c(F)c(F)c(F)c1F [Example A-23, 4-(2,2,3,3-tetrafluoro-1-propoxy)-1,8-naphthalimide pentafluorobenzenesulfonate]",232,12000,7,7.5,10
"O=C(Cc1ccccc1)c1ccc2c3c(cccc13)C(=O)N(OS(=O)(=O)c1c(F)c(F)c(F)c(F)c1F)C2=O [Example A-24, 4-phenylacetyl-1,8-naphthalimide pentafluorobenzenesulfonate]",242,3000,3.2,3.5,5.5
"O=C1c2cccc3c(Oc4c(F)c(F)c(F)c(F)c4F)ccc(c23)C(=O)N1OS(=O)(=O)c1c(F)c(F)c(F)c(F)c1F [Example A-25, 4-pentafluorophenoxy-1,8-naphthalimide pentafluorobenzenesulfonate]",247,12000,11,14,13
"O=C1c2cccc3c(Oc4cccc(C(F)(F)F)c4)ccc(c23)C(=O)N1OS(=O)(=O)c1c(F)c(F)c(F)c(F)c1F [Example A-26, 4-(3-trifluoromethylphenoxy)-1,8-naphthalimide pentafluorobenzenesulfonate]",241,16000,9,11,10
"O=C1c2cccc3c(Sc4ccccc4)ccc(c23)C(=O)N1OS(=O)(=O)c1c(F)c(F)c(F)c(F)c1F [Example A-27, 4-phenylthio-1,8-naphthalimide pentafluorobenzenesulfonate]",242,20000,4,5.5,5.5
"COc1cc2c3c(cccc3c1)C(=O)N(OS(=O)(=O)c1c(F)c(F)c(F)c(F)c1F)C2=O [Example A-28, 3-methoxy-1,8-naphthalimide pentafluorobenzenesulfonate]",240,7500,5,6.5,6
"CCCCC(CC)C(=O)Oc1cc2c3c(cccc3c1)C(=O)N(OS(=O)(=O)c1c(F)c(F)c(F)c(F)c1F)C2=O (stereo not drawn) [Example A-29, 3-(2-ethylhexanoyloxy)-1,8-naphthalimide pentafluorobenzenesulfonate]",230,1500,18,25,23
"CCCC(=O)Oc1cc2c3c(cccc3c1)C(=O)N(OS(=O)(=O)c1c(F)c(F)c(F)c(F)c1F)C2=O [Example A-30, 3-butyroyloxy-1,8-naphthalimide pentafluorobenzenesulfonate]",235,1600,14,18,20
"O=C(Oc1cc2c3c(cccc3c1)C(=O)N(OS(=O)(=O)c1c(F)c(F)c(F)c(F)c1F)C2=O)c1ccccc1 [Example A-31, 3-benzoyloxy-1,8-naphthalimide pentafluorobenzenesulfonate]",243,1400,16,20,18
"O=C(Oc1cc2c3c(cccc3c1)C(=O)N(OS(=O)(=O)c1c(F)c(F)c(F)c(F)c1F)C2=O)c1c(F)c(F)c(F)c(F)c1F [Example A-32, 3-pentafluorobenzoyloxy-1,8-naphthalimide pentafluorobenzenesulfonate]",244,1300,19,24,22
